Assay results: patent US7595337B2, “Mitotic kinesin inhibitors” (Merck & Co. Inc., priority 2005, dated 2009)

Target: T1, human poly-histidine tagged KSP motor domain (KSP(367H)) (Homo sapiens, UniProt P52732)
T1 construct: were used to amplify the motor domain and the neck linker region; made in house; host or cells: E. coli BL21 (DE3), pRSETa
T1 sequence (P52732 18-359 limits assumed): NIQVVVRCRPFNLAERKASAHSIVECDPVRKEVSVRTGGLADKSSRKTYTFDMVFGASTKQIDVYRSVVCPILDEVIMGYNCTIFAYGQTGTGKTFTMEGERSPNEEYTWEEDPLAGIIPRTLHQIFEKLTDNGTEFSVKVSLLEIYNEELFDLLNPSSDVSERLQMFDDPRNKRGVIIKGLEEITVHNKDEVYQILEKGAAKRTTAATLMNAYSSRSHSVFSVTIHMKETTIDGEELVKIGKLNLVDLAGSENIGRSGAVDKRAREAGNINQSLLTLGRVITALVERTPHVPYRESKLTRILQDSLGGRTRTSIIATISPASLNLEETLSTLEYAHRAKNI
Test: Kinesin ATPase In Vitro Assay
Format: biochemical
Details: for IC50: microtubules, 1 mM ATP, 23° C., quinaldine red/ammonium molybdate phosphate readout
Text: I. Kinesin ATPase In Vitro Assay
Cloning and expression of human poly-histidine tagged KSP motor domain (KSP(367H)): Plasmids for the expression of the human KSP motor domain construct were cloned by PCR using a pBluescript full length human KSP construct (Blangy et al., Cell, vol. 83, pp 1159-1169, 1995) as a template. The N-terminal primer 5′-[…] (SEQ. ID. NO.: 1) and the C-terminal primer 5′-[…] […] (SEQ. ID. NO.: 2)
were used to amplify the motor domain and the neck linker region. The PCR products were digested with AseI and XhoI, ligated into the NdeI/XhoI digestion product of pRSETa (Invitrogen) and transformed into E. coli BL21 (DE3).
Cells were grown at 37° C. to an OD600 of 0.5. After cooling the culture to room temperature expression of KSP was induced with 100 μM IPTG and incubation was continued overnight. Cells were pelleted by centrifugation and washed once with ice-cold PBS. Pellets were flash-frozen and stored −80° C.
Protein Purification: Cell pellets were thawed on ice and resuspended in lysis buffer (50 mM K-HEPES, pH 8.0, 250 mM KCl, 0.1% Tween, 10 mM imidazole, 0.5 mM Mg-ATP, 1 mM PMSF, 2 mM benzimidine, 1× complete protease inhibitor cocktail (Roche)). Cell suspensions were incubated with 1 mg/ml lysozyme and 5 mM β-mercaptoethanol on ice for 10 minutes, followed by sonication (3×30 sec). All subsequent procedures were performed at 4° C. Lysates were centrifuged at 40,000×g for 40 minutes. Supernatants were diluted and loaded onto an SP Sepharose column (Pharmacia, 5 ml cartridge) in buffer A (50 mM K-HEPES, pH 6.8, 1 mM MgCl2, 1 mM EGTA, 10 μM Mg-ATP, 1 mM DTT) and eluted with a 0 to 750 mM KCl gradient in buffer A. Fractions containing KSP were pooled and incubated with Ni-NTA resin (Qiagen) for one hour. The resin was washed three times with buffer B (Lysis buffer minus PMSF and protease inhibitor cocktail), followed by three 15-minute incubations and washes with buffer B. Finally, the resin was incubated and washed for 15 minutes three times with buffer C (same as buffer B except for pH 6.0) and poured into a column. KSP was eluted with elution buffer (identical to buffer B except for 150 mM KCl and 250 mM imidazole). KSP-containing fractions were pooled, made 10% in sucrose, and stored at −80° C.
Microtubules are prepared from tubulin isolated from bovine brain. Purified tubulin (>97% MAP-free) at 1 mg/ml is polymerized at 37° C. in the presence of 10 μM paclitaxel, 1 mM DTT, 1 mM GTP in BRB80 buffer (80 mM K-PIPES, 1 mM EGTA, 1 mM MgCl2 at pH 6.8). The resulting microtubules are separated from non-polymerized tubulin by ultracentrifugation and removal of the supernatant. The pellet, containing the microtubules, is gently resuspended in 10 μM paclitaxel, 1 mM DTT, 50 μg/ml ampicillin, and 5 μg/ml chloramphenicol in BRB80.
The kinesin motor domain is incubated with microtubules, 1 mM ATP (1:1 MgCl2: Na-ATP), and compound at 23° C. in buffer containing 80 mM K-HEPES (pH 7.0), 1 mM EGTA, 1 mM DTT, 1 mM MgCl2, and 50 mM KCl. The reaction is terminated by a 2-10 fold dilution with a final buffer composition of 80 mM HEPES and 50 mM EDTA. Free phosphate from the ATP hydrolysis reaction is measured via a quinaldine red/ammonium molybdate assay by adding 150 μl of quench C buffer containing a 2:1 ratio of quench A:quench B. Quench A contains 0.1 mg/ml quinaldine red and 0.14% polyvinyl alcohol; quench B contains 12.3 mM ammonium molybdate tetrahydrate in 1.15 M sulfuric acid. The reaction is incubated for 10 minutes at 23° C., and the absorbance of the phosphomolybdate complex is measured at 540 nm.

| SMILES | IC50 [µM] | activity of resolved enantiomer (active / inactive) (assay not named) | relative inhibitory activity of the diastereomers (the cis diastereomer (eluted second) compared with the other, assay not named) |
| --- | --- | --- | --- |
| CC(=O)N1CCN(CCCC2(c3ccccc3)C3COc4ccc(F)cc4C3=NN2C(=O)C(F)(F)F)CC1 (centres unmarked) [Compound 3-8, 3-[3-(4-acetylpiperazin-1-yl)propyl]-8-fluoro-3-phenyl-2-(trifluoroacetyl)-2,3,3a,4-tetrahydrochromeno[4,3-c]pyrazole] | ≤ 30 | – | – |
| CC(=O)N1CCN(CCC[C@@]2(c3ccccc3)[C@@H]3COc4ccc(F)cc4C3=NN2C(=O)C(F)(F)F)CC1 [Compound 3-9, (3S,3aS)-3-[3-(4-acetylpiperazin-1-yl)propyl]-8-fluoro-3-phenyl-2-(trifluoroacetyl)-2,3,3a,4-tetrahydrochromeno[4,3-c]pyrazole] | ≤ 30 | active | – |
| CC(=O)N1N=C2c3cc(F)ccc3OC[C@H]2[C@H]1c1ccccc1 [Compound 1-3, (3S,3aS)-2-acetyl-8-fluoro-3-phenyl-2,3,3a,4-tetrahydrochromeno[4,3-c]pyrazole] | ≤ 30 | active | – |
| CC(=O)N1CCN(CCC[C@@]2(c3ccccc3)[C@H]3COc4ccc(F)cc4C3=NN2C(C)=O)CC1 (relative stereo) [Compound 4-1, cis-2-acetyl-3-[3-(4-acetylpiperazin-1-yl)propyl]-8-fluoro-3-phenyl-2,3,3a,4-tetrahydrochromeno[4,3-c]pyrazole] | ≤ 30 | – | – |
| CC(=O)N1N=C2c3cc(F)ccc3OCC2C1(CCC1OCCCO1)c1ccccc1 (mixture of isomers) [Compound 5-4, 2-acetyl-3-[2-(1,3-dioxan-2-yl)ethyl]-8-fluoro-3-phenyl-2,3,3a,4-tetrahydrochromeno[4,3-c]pyrazole] | ≤ 30 | – | – |
| CN(C)CCCC1(c2ccccc2)C2COc3ccc(F)cc3C2=NN1C(=O)C(F)(F)F (centres unmarked) [Compound 3-10, {3-[8-fluoro-3-phenyl-2-(trifluoroacetyl)-2,3,3a,4-tetrahydrochromeno[4,3-c]pyrazol-3-yl]propyl}dimethylamine] | ≤ 30 | – | – |
| O=C(N1N=C2c3cc(F)ccc3OCC2C1(CCCN1CCOCC1)c1ccccc1)C(F)(F)F (centres unmarked) [Compound 3-11, 8-fluoro-3-(3-morpholin-4-ylpropyl)-3-phenyl-2-(trifluoroacetyl)-2,3,3a,4-tetrahydrochromeno[4,3-c]pyrazole] | ≤ 30 | – | – |
| CC(=O)N1N=C2c3cc(F)ccc3OCC2C1(C)c1ccccc1 (mixture of isomers) [Compound 2-2, 2-acetyl-8-fluoro-3-methyl-3-phenyl-2,3,3a,4-tetrahydrochromeno[4,3-c]pyrazole] | ≤ 30 | – | – |
| CC(=O)N1CCN(CCC[C@@]2(c3ccccc3)[C@H]3COc4ccc(F)cc4C3=NN2C(C)=O)CC1 (single isomer, unassigned) [Compound 5-6] | ≤ 30 | active | – |
| CC(=O)N1N=C2c3cc(F)ccc3OCC2C1c1ccccc1 (centres unmarked) [Compound 1-2, 2-acetyl-8-fluoro-3-phenyl-2,3,3a,4-tetrahydrochromeno[4,3-c]pyrazole] | ≤ 30 | – | higher inhibitory activity |
| CC(=O)N1CCN(CCC[C@@]2(c3ccccc3)[C@@H]3COc4ccc(F)cc4C3=NN2C(C)=O)CC1 (single isomer, unassigned) [Compound 5-5] | ≤ 30 | active | – |
| O=C(N1N=C2c3cc(F)ccc3OCC2C1(CCCO)c1ccccc1)C(F)(F)F (centres unmarked) [Compound 3-7, 3-[8-fluoro-3-phenyl-2-(trifluoroacetyl)-2,3,3a,4-tetrahydrochromeno[4,3-c]pyrazol-3-yl]propan-1-ol] | ≤ 30 | – | – |
